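Step 1: Grow cells in 96-well plates. Step 2: Expose to compound for 48 hours at 5 concentrations. Step 3: Interpolate endpoints linearly; if unreached, use highest concentration. GI50 = concentration required for 50% inhibition of growth. Definition used: TGI = concentration required for complete inhibition of growth.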
Tests used:
Experiment in all cases: DTP human tumour cell line panel, 48 h
[1] = tested on: M14 melanoma
[2] = tested on: UACC-62 melanoma
[3] = tested on: 786-0 renal
[4] = tested on: HT29 colon
[5] = tested on: UACC-257 melanoma
[6] = tested on: HL-60(TB) leukemia
[7] = tested on: U251 CNS
[8] = tested on: SF-295 CNS

Compound | GI50 [1] [µM] | TGI [1] [µM] | GI50 [2] [µM] | TGI [2] [µM] | GI50 [3] [µM] | TGI [3] [µM] | GI50 [4] [µM] | TGI [4] [µM] | GI50 [5] [µM] | TGI [5] [µM] | GI50 [6] [µM] | TGI [6] [µM] | GI50 [7] [µM] | TGI [7] [µM] | TGI [8] [µM] | GI50 [8] [µM]
CC1=CC[C@@H]2C(=O)C=CC=C[C@H]12.[C-]#[O+].[C-]#[O+].[C-]#[O+].[Fe] | > 100 | > 100 | > 100 | > 100 | > 100 | > 100 | > 100 | > 100 | > 100 | > 100 | > 100 | > 100 | > 100 | > 100 |  | 
CC(C)=CC1(C)/C(=N\O)C(C)(CC(C)C)C(=O)N1O (configuration not stated) |  | > 100 |  | > 100 |  | > 100 |  | > 100 |  | > 100 |  | > 100 |  | > 100 | > 100 | 
CC(C)CCCC(C)[C@H]1CCC2C3CC=C4C[C@@H](OC(=O)CC(CC(=O)[O-])C(=O)[O-])CC[C@]4(C)C3CC[C@@]21C.N.N.[Pt+4] (some centres not stated) | > 100 | > 100 | > 100 | > 100 | > 100 | > 100 | > 100 | > 100 | > 100 | > 100 | > 100 | > 100 | > 100 | > 100 | > 100 | > 100
Cc1c(-c2cc(-c3ccccc3)n[nH]c2=O)c2ccccc2n1C |  | > 100 |  | > 100 |  | > 100 |  | > 100 |  | > 100 |  | > 100 |  | > 100 | > 100 | 
CCOC(=O)C1=C(Nc2cccc3ccccc23)OCC1=O |  | > 100 |  | > 100 |  | > 100 |  | > 100 |  | > 100 |  |  |  | > 100 |  | 
NC(=S)N/N=C1/C(=O)N(c2ccccc2)C(=O)C1C(=O)Nc1ccccc1 (configuration not stated) |  | > 100 |  | > 100 |  | > 100 |  | > 100 |  | > 100 |  | > 100 |  | > 100 | > 100 | 
CC(C)(C)CC(C)(C)c1cc2c(O)c(c1)Cc1cc(C(C)(C)CC(C)(C)C)cc(c1O)Cc1cc(C(C)(C)CC(C)(C)C)cc(c1O)Cc1cc(C(C)(C)CC(C)(C)C)cc(c1O)Cc1cc(C(C)(C)CC(C)(C)C)cc(c1O)Cc1cc(C(C)(C)CC(C)(C)C)cc(c1O)Cc1cc(C(C)(C)CC(C)(C)C)cc(c1O)Cc1cc(C(C)(C)CC(C)(C)C)cc(c1O)C2 |  | > 100 |  | > 100 |  | > 100 |  | > 100 |  | > 100 |  | > 100 |  | > 100 | > 100 | 
CN(C)C(=S)/N=C(\N)N(C)C |  | > 100 |  | > 100 |  | > 100 |  | > 100 |  | > 100 |  | > 100 |  | > 100 | > 100 | 
Nc1ncnc2c1N=CN(Oc1ccccc1)N2 |  | > 100 |  | > 100 |  | > 100 |  | > 100 |  | > 100 |  |  |  | > 100 | > 100 | 
O=C(/C=C/c1ccco1)N1CCN(Cc2ccccc2)CC1 |  | > 100 |  | > 100 |  | > 100 |  | > 100 |  | > 100 |  | > 100 |  | > 100 | > 100 | 
C=CCC(O)c1cc(OC)ccc1OC (configuration not stated) |  | > 100 |  | > 100 |  | > 100 |  | > 100 |  | > 100 |  | > 100 |  | > 100 | > 100 | 
CC/C(=N/O)C(C)C(=O)CCC(=O)Nc1ccc(Cl)cc1 (configuration not stated) |  | > 100 |  | > 100 |  | > 100 |  | > 100 |  | > 100 |  | > 100 |  | > 100 | > 100 | 
CNC(=O)NCCCCC(NC(=O)OCc1ccccc1)C(=O)OCc1ccccc1 (configuration not stated) |  | 31.3 |  | 47.9 |  | 32.2 |  | > 100 |  | 34.5 |  | 32.4 |  | 54.4 | 50.3 | 
NC(CCSCCF)C(=O)O (configuration not stated) |  | > 100 |  | > 100 |  | > 100 |  | > 100 |  |  |  | > 100 |  | > 100 |  | 
Cc1cccc(/C=N/N=C(\N)NO)n1 |  | > 100 |  | 8.83 |  | > 100 |  | > 100 |  | > 100 |  | > 100 |  | > 100 | > 100 | 
CC(C(=O)c1ccc(O)cc1)C1(O)C(=O)Nc2c(Cl)cc(Cl)cc21 (configuration not stated) |  | > 61.2 |  | 21.7 |  | > 100 |  | > 100 |  | 33.3 |  | 50.2 |  | > 100 | > 100 | 
COC(=O)c1ccc(N/C=C(/C#N)c2ccsc2)cc1 |  |  |  | 60.5 |  | 23.3 |  | 25.3 |  | > 100 |  | > 100 |  | 20.3 | 19.9 | 
[N-]=[N+]=Nc1nnc(CCCCc2nnc(N=[N+]=[N-])o2)o1 |  | > 100 |  | > 100 |  | > 100 |  | > 100 |  | > 100 |  |  |  | > 100 | > 100 | 
CCSc1nnc(-c2ccc3ccccc3c2O)n1-c1ccccc1 |  |  |  |  | > 100 | > 100 |  |  | > 100 | > 100 | > 100 | > 100 |  |  |  | 
